Experimental data reported in US20170114025A1, “METHODS FOR INHIBITING NECROPTOSIS” (Catalyst Therapeutics Pty Ltd, priority 2014, published 2017).
Like-named read-outs stand apart in the source and are kept apart here.

Legend:
[1] = target: T1, mouse MLKL(179-464) pseudokinase domain (Mus musculus, UniProt Q9D2Y4); experiment: Surface Plasmon Resonance (SPR) binding, mouse MLKL
T1 construct: made in house; host or cells: Sf21 insect cells
T1 sequence (Q9D2Y4 179-464 isoform Q9D2Y4-2): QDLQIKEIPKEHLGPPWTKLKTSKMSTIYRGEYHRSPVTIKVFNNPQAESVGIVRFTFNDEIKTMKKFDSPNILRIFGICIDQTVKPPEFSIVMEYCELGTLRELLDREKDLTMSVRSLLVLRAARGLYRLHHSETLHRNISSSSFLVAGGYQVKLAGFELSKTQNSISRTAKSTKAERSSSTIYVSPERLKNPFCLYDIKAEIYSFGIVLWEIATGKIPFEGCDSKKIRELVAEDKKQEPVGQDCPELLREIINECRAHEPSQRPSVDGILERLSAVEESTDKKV
From the text: Double His-tagged MLKL and an unrelated negative control reference protein were immobilized on an NTA Capture chip charged with Ni^2+ according to manufacturer's instructions. In some instances, double His-tagged proteins were captured via Ni^2+/NTA chelation on a series S sensor chip containing carboxymethylated dextran surface pre-immobilized with nitrilotriacetic acid (NTA). The surface was then activated and enhanced with NHS/EDC mixture and His captured proteins covalently coupled to the surface as succinamide esters. Ethanolamine was injected later to block any unreacted esters. Unbound Ni^2+ and non-covalently bound proteins were eluted by EDTA injections.
Typical immobilization levels were 2000-3000 Response Units (RU). Flow cell 1 was left blank as a reference surface. Immobilization experiments were carried out at 25° C. in a running buffer containing 20 mM HEPES (pH 8.0), 200 mM NaCl and 0.005% (v/v) surfactant P20.
Binding experiments were carried out in Running Buffer+2% v/v DMSO. […] Data were reduced, solvent corrected, and double referenced by Biacore T200 Evaluation Software. Data were fit globally to a two state kinetic interaction model and the Kd determined from the (kd/ka) ratio. A 1:1 binding stoichiometry was inferred from the steady state binding curves and the maximum observed Response Unit (RU) levels.

[2] = target: T1, mouse MLKL(179-464) pseudokinase domain; experiment: STD NMR nucleotide competition, mouse MLKL; assay type: binding; details: 200 μM compound, 200 μM nucleotide, 2 μM mouse MLKL(179-464)
Description: Nucleotides were dissolved in NMR buffer (20 mM HEPES, pH 7.5, 200 mM NaCl, 90% D2O, 10% H2O) at a final concentration of 200 μM in each sample of STD experiments. Three different samples were prepared for each nucleotide: (1) ATP or ADP with protein buffer added as equivalent volume of protein containing samples (2) ATP or ADP with MLKL pseudokinase domain at a final concentration of 2 μM (3) ATP or ADP with MLKL pseudokinase domain (2 μM) with test compound at 200 μM. […] Saturation of the protein resonances was achieved by a 4 s train of Gaussian pulses centred at −0.5 ppm. For the reference spectra, a similar saturation pulse was applied at a frequency centred 20,000 Hz off-resonance. A 15 ms T2-spin-lock period was employed before acquisition to allow the residual protein signal to decay. NMR data were processed in TOPSPIN version 3.2 (Bruker BioSpin).

wild type U937 cells = experiment: Cell death assay, TSQ-induced necroptosis in U937 cells (PI, flow cytometry); assay type: cell-based, human; details: for IC50: Homo sapiens
From the text: Mouse dermal fibroblasts (MDFs) were isolated from three MlkI^−/− mice and three congenic wild type mice and then immortalized by SV40 large T antigen to generate three biologically independent cell lines, as described in Murphy J M, et al. (2013), Immunity 39(3):443-453. Immortalized MDFs were similarly prepared from three Ripk3^−/− mice and congenic wild type mice. MDFs and HEK293T were maintained in Dulbecco's modified Eagle's medium (DMEM) supplemented with 8-10% v/v fetal calf serum (FCS), and 5 μg/mL puromycin for lines stably transduced with inducible expression constructs for MLKL. U937 cells were cultured in RPMI1640 supplemented with 8% v/v FCS. Cell death assays were carried out in 24 well plates, seeding 1×10^5 cells per well. Cells attached over 4 h in the presence of 10 ng/mL doxycycline or 20 ng/mL were then treated with assorted combinations of Necrostatin (50 μM) and Q-VD-OPh (5 μM) 30 min prior to addition of TNF (100 ng/mL) and Smac mimetic (500 nM). After 24 h for MDF cells or 48 h for U937 cells, cells were harvested and PI positive cells (1 μg/mL) quantified using a BD FACSCalibur flow cytometer.

transformed iBMDMs = experiment: Poly(I:C) experiment, RIP1-independent necroptosis; assay type: cell-based; details: poly:IC 50 ug/ml, zVAD 25 uM, 48 hrs
Description: Cells were harvested after 48 hrs. Cell death was analysed via propidium iodide staining and flow cytometry.

[3] = system: MLKL translocation in MDFs; experiment: Fractionation and Blue Native PAGE, MLKL membrane translocation; assay type: cell-based, mouse; details: TSQ up to 6 hours, 1 μM test compound, anti-MLKL blots of Blue-Native PAGE
Description: MDFs were seeded in 6 well plates (5×10^5 per well) and allowed to attach overnight. Cells were stimulated with TSQ for up to 6 hours in the presence of 1 μM test compound or DMSO control. Cells were harvested by scraping, washed once in PBS and permeabilized in buffer (20 mM Hepes (pH 7.5), 100 mM KCl, 2.5 mM MgCl2, and 100 mM sucrose) containing 0.025% digitonin (BIOSYNTH, Staad, Switzerland) and supplemented with EDTA-free Complete protease inhibitor cocktail (Roche), 2 μM N-ethyl maleimide, and phosphatase inhibitors (5 mM β-glycerophosphate, 1 mM Na Molybdate, 1 mM Na Pyrophosphate and 100 μM Na Fluoride). Permeabilization was confirmed by trypan blue uptake, and cytosolic and crude membrane fractions were separated by centrifugation at 11,000×g for 5 min. Digitonin was added to the cytoplasmic fraction to a final concentration of 1% and the crude membrane fraction was further solubilized in permeabilization buffer+1% digitonin and incubated on ice for 20 min. Crude membrane suspension was centrifuged at 11,000×g for 5 min and the supernatant loaded alongside cytoplasmic fraction on 4-16% Bis-Tris Native PAGE gel (LifeTechnologies). […] MLKL containing complexes were detected by anti-MLKL (3H1) Western blotting as described above.

For `CN(c1ccc(NC(=O)Nc2ccc(OC(F)(F)F)cc2)cc1)c1ccnc(Nc2cccc(S(N)(=O)=O)c2)n1` [Compound 1, 3-((4-(methyl(4-(3-(4-(trifluoromethoxy)phenyl)ureido)phenyl)amino)pyrimidin-2-yl)amino)benzenesulfonamide], the Kd [1] was 9300 nM, the “competition with ATP and ADP for binding (STD NMR)” value [2] was “can compete with (i) ATP and (ii) ADP” and the IC50 (wild type U937 cells; U-937, 48 h, read-out: IC50, rescue from TSQ-induced necroptosis) was 50 to 100 nM. The IC50 (wild type U937 cells; U-937, read-out: Inhibition of necroptosis (IC50)) was 50 to 100 nM, the “cells rescued from TSQ-induced necroptosis” value (wild type U937 cells; wt U937 cells, 48 h) was roughly 50% and the “inhibition of Poly(I:C) and zVAD induced necroptosis” value (transformed iBMDMs) was “inhibits Poly(I:C) and zVAD induced necroptosis”. For the same compound, the “MLKL translocation to the membrane fraction” value [3] was “retarded translocation to the membrane fraction”.
